In patent US10828316B2, “Method of treating bacterial infections” (priority 2016, dated 2020):
Like-named read-outs stand apart in the source and are kept apart here.

How the values were obtained:
S. flexneri APV00906 = assay: MIC; format: cell-based; settings: S. flexneri APV00906; in FdUrd+trimethoprim+uridine combination
E. coli EN002 = assay: MIC; format: cell-based, Escherichia coli
K. pneumoniae EN0437 = assay: MIC; format: cell-based
K. pneumoniae EN011 = assay: MIC; format: cell-based, Klebsiella pneumoniae; settings: Klebsiella pneumoniae
S. flexneri APV00907 = assay: MIC; format: cell-based; settings: S. flexneri APV00907
A. baumannii EN0007 = assay: MIC; format: cell-based, A. baumanii
E. coli EN0136 = assay: MIC; format: cell-based; settings: in AZT+trimethoprim+uridine combination
[1] = in vivo; cited from earlier work
E. coli EN0001 = assay: MIC; format: cell-based; settings: in AZT+trimethoprim+uridine combination
K. pneumoniae EN0436 = assay: MIC; format: cell-based; settings: in AZT+trimethoprim+uridine combination
P. aeruginosa EN015 = assay: MIC; format: cell-based, Pseudomonas aeruginosa; settings: Pseudomonas aeruginosa
K. pneumoniae EN0142 = assay: MIC; format: cell-based; settings: in AZT+trimethoprim+uridine combination
S. sonnei APV00908 = assay: MIC; format: cell-based; settings: S. sonnei APV00908
K. pneumoniae EN0401 = assay: MIC; format: cell-based
S. typhimurium EN0466 = assay: MIC; format: cell-based, Salmonella typhimurium
E. coli EN001 = assay: MIC; format: cell-based, Escherichia coli
E. coli EN0138 = assay: MIC; format: cell-based; settings: in AZT+trimethoprim+uridine combination
[2] = system: Helicobacter pylori APV00918; assay: MIC; format: cell-based; settings: in FdUrd+trimethoprim+uridine combination
Source text: (§1) Inhibition of Heliobacter is important in view of increasing resistance and its association to gastric cancer.

[3] = system: Helicobacter pylori ATTC43504; assay: MIC; format: cell-based; settings: in AZT+trimethoprim+uridine combination
Source text: as §1

K. pneumoniae EN0143 = assay: MIC; format: cell-based
E. coli EN0135 = assay: MIC; format: cell-based; settings: in AZT+trimethoprim+uridine combination
P. aeruginosa EN0004 = assay: MIC; format: cell-based
K. oxytoca EN0392 = assay: MIC; format: cell-based, Klebsiella oxytoca
E. coli EN013 = assay: MIC; format: cell-based, Escherichia coli; settings: Escherichia coli
A. baumannii EN007 = assay: MIC; format: cell-based, Acinetobacter baumannii; settings: Acinetobacter baumannii, Combination 2, read-out: MIC, thymidine concentration
S. epidermidis EN0456 = assay: MIC; format: cell-based, Staphylococcus epidermidis; settings: Staphylococcus epidermidis, Combination 2, read-out: MIC, thymidine concentration
P. mirabilis ST19 EN0445 = assay: MIC; format: cell-based, Proteus mirabilis; settings: Proteus mirabilis, ST19EN0445, Combination 2, read-out: MIC, thymidine concentration
P. aeruginosa EN0459 = assay: MIC; format: cell-based, Pseudomonas aeruginosa; settings: Pseudomonas aeruginosa, Combination 2, read-out: MIC, thymidine concentration
E. aerogenes EN0461 = assay: MIC; format: cell-based, Enterobacter aerogenes; settings: Klebsiella aerogenes, Combination 2, read-out: MIC, thymidine concentration
E. coli EN003 = assay: MIC; format: cell-based, Escherichia coli; settings: Escherichia coli, Combination 2, read-out: MIC, thymidine concentration
K. pneumoniae EN0463 = assay: MIC; format: cell-based, Klebsiella pneumoniae; settings: Klebsiella pneumoniae, Combination 2, read-out: MIC, thymidine concentration
K. pneumoniae EN010 = assay: MIC; format: cell-based, Klebsiella pneumoniae; settings: Klebsiella pneumoniae, Combination 2, read-out: MIC, thymidine concentration
M. luteus EN0455 = assay: MIC; format: cell-based, Micrococcus luteus; settings: Micrococcus luteus, Combination 2, read-out: MIC, thymidine concentration
E. coli EN012 = assay: MIC; format: cell-based, Escherichia coli; settings: Escherichia coli, Combination 2, read-out: MIC, thymidine concentration
P. aeruginosa EN0422 = assay: MIC; format: cell-based, Pseudomonas aeruginosa; settings: Pseudomonas aeruginosa, Combination 2, read-out: MIC, thymidine concentration
P. mirabilis EN0457 = assay: MIC; format: cell-based, Proteus mirabilis; settings: Proteus mirabilis, Combination 2, read-out: MIC, thymidine concentration
S. marescens EN0454 = assay: MIC; format: cell-based, Serratia marescens; settings: Serratia, Combination 2, read-out: MIC, thymidine concentration
Citrobacter sp. EN0465 = assay: MIC; format: cell-based; settings: Combination 2, read-out: MIC, thymidine concentration
E. coli B EN0458 = assay: MIC; format: cell-based, Escherichia coli B; settings: Escherichia coli, BEN0458, Combination 2, read-out: MIC, thymidine concentration
S. aureus EN008 = assay: MIC; format: cell-based, Staphylococcus aureus; settings: Staphylococcus aureus, Combination 2, read-out: MIC, thymidine concentration
P. aeruginosa EN014 = assay: MIC; format: cell-based, Pseudomonas aeruginosa; settings: Pseudomonas aeruginosa, Combination 2, read-out: MIC, thymidine concentration
A. baumannii EN017 = assay: MIC; format: cell-based, Acinetobacter baumannii; settings: Acinetobacter baumannii; A. baumannii EN017; Combination 2; read-out: MIC, thymidine concentration
P. aeruginosa EN0460 = assay: MIC; format: cell-based, Pseudomonas aeruginosa; settings: Pseudomonas aeruginosa, Combination 2, read-out: MIC, thymidine concentration
K. pneumoniae EN006 = assay: MIC; format: cell-based, Klebsiella pneumoniae; settings: Klebsiella pneumoniae, Combination 2, read-out: MIC, thymidine concentration
A. baumannii EN016 = assay: MIC; format: cell-based, Acinetobacter baumannii; settings: Acinetobacter baumannii, Combination 2, read-out: MIC, thymidine concentration
[4] = system: A. pittii or A. nosocomialis EN0180; assay: MIC; format: cell-based, Acinetobacter pittii or nosocomialis; settings: Combination 2, read-out: MIC, thymidine concentration
P. aeruginosa EN004 = assay: MIC; format: cell-based, Pseudomonas aeruginosa; settings: Pseudomonas aeruginosa, Combination 2, read-out: MIC, thymidine concentration
P. aeruginosa EN005 = assay: MIC; format: cell-based, Pseudomonas aeruginosa; settings: Pseudomonas aeruginosa, Combination 2, read-out: MIC, thymidine concentration
[5] = in FdUrd+trimethoprim+uridine combination
[6] = in didanosine+trimethoprim+uridine combination
[7] = in AZT+trimethoprim+uridine combination
[8] = Escherichia coli, Combination 2, read-out: MIC, thymidine concentration

O=c1ccn([C@@H]2O[C@H](CO)[C@@H](O)[C@H]2O)c(=O)[nH]1 [Uridine, uridine]
MIC (S. flexneri APV00906): >400 µg/mL | MIC (E. coli EN002; Combination 1 (AZT+trimethoprim+uridine)): 1.6 µg/mL | MIC (K. pneumoniae EN0437; [5]): >400 µg/mL | MIC (K. pneumoniae EN0437; [6]): >400 µg/mL | MIC (K. pneumoniae EN011; EN011, K. pneumoniae EN011, Combination 1 (AZT+trimethoprim+uridine)): 3.2 µg/mL | MIC (K. pneumoniae EN011; EN011, K. pneumoniae EN011, in AZT+trimethoprim+uridine combination): 30 µg/mL | MIC (K. pneumoniae EN011; EN011, K. pneumoniae EN011, in FdUrd+trimethoprim+uridine combination): 6 µg/mL | MIC (K. pneumoniae EN011; EN011, K. pneumoniae EN011, in didanosine+trimethoprim+uridine combination): 13 µg/mL | MIC (S. flexneri APV00907; [7]): 200 µg/mL | MIC (S. flexneri APV00907; [5]): >400 µg/mL | MIC (A. baumannii EN0007; [7]): >400 µg/mL | MIC (A. baumannii EN0007; [5]): >400 µg/mL | MIC (A. baumannii EN0007; [6]): >400 µg/mL | MIC (E. coli EN0136): 13 µg/mL | oral bioavailability [1]: 7-8% | MIC (E. coli EN0001): 13 µg/mL | MIC (K. pneumoniae EN0436): 13 µg/mL | MIC (P. aeruginosa EN015; EN015, P. aeruginosa EN015, Combination 1 (AZT+trimethoprim+uridine)): 200 µg/mL | MIC (P. aeruginosa EN015; EN015, P. aeruginosa EN015, Combination 2 (same mixed with thymidine)): 200 µg/mL | MIC (P. aeruginosa EN015; EN015, P. aeruginosa EN015, in AZT+trimethoprim+uridine combination): 500 µg/mL | MIC (K. pneumoniae EN0142): 13 µg/mL | MIC (S. sonnei APV00908; [7]): 3 µg/mL | MIC (S. sonnei APV00908; [5]): >400 µg/mL | MIC (K. pneumoniae EN0401; [5]): >400 µg/mL | MIC (K. pneumoniae EN0401; [6]): >400 µg/mL | MIC (S. typhimurium EN0466; [5]): 13 µg/mL | MIC (E. coli EN001; [5]): 13 µg/mL | MIC (E. coli EN001; [6]): 13 µg/mL | MIC (E. coli EN0138): 1.6 µg/mL | MIC [2]: 6 µg/mL | MIC [3]: 13 µg/mL | MIC (K. pneumoniae EN0143; [5]): >400 µg/mL | MIC (K. pneumoniae EN0143; [6]): >400 µg/mL | MIC (E. coli EN0135): 13 µg/mL | MIC (P. aeruginosa EN0004; [7]): >400 µg/mL | MIC (P. aeruginosa EN0004; [5]): >400 µg/mL | MIC (P. aeruginosa EN0004; [6]): >400 µg/mL | MIC (K. oxytoca EN0392; [5]): 13 µg/mL | MIC (E. coli EN013; EN013, E. coli EN013, Combination 1 (AZT+trimethoprim+uridine)): < 0.8 µg/mL | MIC (E. coli EN013; EN013, E. coli EN013, Combination 2 (same mixed with thymidine)): < 0.8 µg/mL | MIC (E. coli EN013; EN013, E. coli EN013, in AZT+trimethoprim+uridine combination): < 2 µg/mL | MIC (E. coli EN013; EN013, E. coli EN013, in FdUrd+trimethoprim+uridine combination): 1.6 µg/mL | MIC (E. coli EN013; EN013, E. coli EN013, in didanosine+trimethoprim+uridine combination): 1.6 µg/mL

Cc1cn([C@H]2C[C@H](O)[C@@H](CO)O2)c(=O)[nH]c1=O [Thymidine, thymidine]
MIC (E. coli EN002; [8]): 4 µM | MIC (A. baumannii EN007): > 120 µM | MIC (K. pneumoniae EN011; K. pneumoniae EN011, Combination 2, read-out: MIC, thymidine concentration): 8 µM | MIC (S. epidermidis EN0456): 60 µM | MIC (P. mirabilis ST19 EN0445): > 120 µM | MIC (P. aeruginosa EN0459): > 120 µM | MIC (E. aerogenes EN0461): 60 µM | MIC (E. coli EN003): < 0.2 µM | MIC (K. pneumoniae EN0463): 8 µM | MIC (P. aeruginosa EN015; P. aeruginosa EN015, Combination 2, read-out: MIC, thymidine concentration): 60 µM | MIC (K. pneumoniae EN010): 30 µM | MIC (M. luteus EN0455): > 120 µM | MIC (E. coli EN012): < 0.2 µM | MIC (S. typhimurium EN0466; Salmonella enterica, Combination 2, read-out: MIC, thymidine concentration): 15 µM | MIC (P. aeruginosa EN0422): > 120 µM | MIC (E. coli EN001; [8]): 30 µM | MIC (P. mirabilis EN0457): > 120 µM | MIC (S. marescens EN0454): > 120 µM | MIC (K. oxytoca EN0392; Klebsiella oxytoca, Combination 2, read-out: MIC, thymidine concentration): 15 µM | MIC (E. coli EN013; E. coli EN013, Combination 2, read-out: MIC, thymidine concentration): < 0.2 µM | MIC (Citrobacter sp. EN0465): > 120 µM | MIC (E. coli B EN0458): < 0.2 µM | MIC (S. aureus EN008): > 120 µM | MIC (P. aeruginosa EN014): > 120 µM | MIC (A. baumannii EN017): 30 µM | MIC (P. aeruginosa EN0460): > 120 µM | MIC (K. pneumoniae EN006): 15 µM | MIC (A. baumannii EN016): > 120 µM | MIC [4]: > 120 µM | MIC (P. aeruginosa EN004): > 120 µM | MIC (P. aeruginosa EN005): 30 µM
